Reference: article PMC7569237 (Translational Oncology, 2020)

Assay: Plasma and tumor levels in MIA PaCa-2 tumor-bearing nude mice
Assay type: in vivo
Conditions: MIA PaCa-2-bearing mice, CPT-11 10 mg/kg iv; SN38 = released from CPT-11

SMILES	Time within which concentrations rapidly decreased in plasma and tumor
CCc1c2c(nc3ccc(O)cc13)-c1cc3c(c(=O)n1C2)COC(=O)[C@]3(O)CC [SN38, 7-ethyl-10-hydroxycamptothecin]	≤ 48 h
CCc1c2c(nc3ccc(OC(=O)N4CCC(N5CCCCC5)CC4)cc13)-c1cc3c(c(=O)n1C2)COC(=O)[C@]3(O)CC [CPT-11, 7-ethyl-10-[4-(1-piperidino)-1-piperidino]carbonyloxycamptothecin]	≤ 48 h
